The values below come from patent publication US20250082687A1, “COMPOSITION FOR IMPROVING MEMORY OR COGNITIVE ABILITY, OR PREVENTING OR TREATING BRAIN NEUROLOGICAL DISEASE, COMPRISING PORCINE BRAIN ENZYME HYDROLYSATE” (UNIMED PHARMACEUTICALS INC., priority 2022, published 2025).

Data set [1] can be described thus: Cytotoxicity of peptides (MTT cell viability). The format is cell-based, human. The settings on record: human, SH-SY5Y cells, all tested concentrations (0.4˜40 ug/ml). The method, then: (§1) SH-SY5Y cells, a human neuronal cell line, were obtained from the Korean Cell Line Bank (Cat No. 22266) and were cultured in Roswell Park Memorial Institute (RPMI) 1640 Medium (RPMI 1640, Cytiba) medium containing 10% fetal bovine serum (FBS, Cytiba) and 100 IU/ml penicillin and 100 μg/ml streptomycin in a 5% CO2, 37° C. incubator.
(§2) The human neuronal cell line SH-SY5Y was cultured and various concentrations of porcine brain enzyme hydrolysate-derived peptides were added to determine cell viability by MTT (methylthiazol tetrazolium bromide, Sigma Aldrich). Cells were seeded in appropriate amounts (1×10^5/well) in each well of a 24 well plate (BD, Falcon), treated with each concentration, and cell viability was determined after 48 hours of incubation in a 37° C. incubator. After 4 hours of reaction with MTT solution, the insoluble formazan crystals were dissolved by adding 400 μl of DMSO and the absorbance was measured with an ELISA reader (TECAN, Infinite M200 pro) at a wavelength of 570 nm.

Data set [2] has as its system SH-SY5Y cells. Kind of data set: Cytotoxicity of peptides (MTT cell viability). The format is cell-based, human. The settings on record: 40 ug/mL (w/v), 48 hours. The method, then: as §1, §2

One may read the viability as a read-out of living cells in per cent, often relative to untreated cells. Low values mean more harm to the cells, high ones less harm to the cells.

Where a SMILES comes first, the peptide text is derived from it.

The compound `CC[C@H](C)[C@H](NC(=O)[C@H](CO)NC(=O)[C@@H]1CCCN1)C(=O)N[C@@H](CO)C(=O)O` [brPEP-1, PSIS] (H-PSIS-OH) registered a viability at 48 h in data set [1] above 90%. Also, in data set [2], the cell viability is recorded as 93.05%±2.23%.
For `C[C@H](NC(=O)[C@@H]1CCCN1C(=O)CN)C(=O)NCC(=O)N1CCC[C@H]1C(=O)N[C@@H](CCC(N)=O)C(=O)NCC(=O)N1CCC[C@H]1C(=O)N[C@@H](CCCNC(=N)N)C(=O)O` [brPEP-2, GPAGPQGPR] the same measures were above 90% and 108.47%±5.20%.
